These results are taken from PubChem BioAssay AID1259407 (Chemical Carcinogenesis Research Information System (CCRIS), 2018).

The data set relates to CCRIS mutagenicity, Ames/micronucleus/aberration tests. As to the kind of experiment: CCRIS mutagenicity studies.
Where [1] appears, read: Test System: AMES SALMONELLA TYPHIMURIUM, Strain/Indicator: TA100, Metabolic Activation: NONE, Method: PREINCUBATION
Where [2] appears, read: Test System: UDS RODENT HEPATOCYTES, Strain/Indicator: THY INCORP (NON-S-PHASE), Metabolic Activation: NONE, Method: AUTORADIOGRAPHY
Setting [3] is: Test System: AMES SALMONELLA TYPHIMURIUM, Strain/Indicator: TA98, Metabolic Activation: NONE, Method: STANDARD PLATE.
Setting [4] is: Test System: AMES SALMONELLA TYPHIMURIUM, Strain/Indicator: TA98, Metabolic Activation: RAT, LIVER, S-9, AROCLOR 1254, Method: STANDARD PLATE.
The mark [5] stands for this setting: Test System: AMES SALMONELLA TYPHIMURIUM, Strain/Indicator: TA100, Metabolic Activation: NONE, Method: STANDARD PLATE.
Where [6] appears, read: Test System: AMES SALMONELLA TYPHIMURIUM, Strain/Indicator: TA100, Metabolic Activation: RAT, LIVER, S-9, AROCLOR 1254, Method: STANDARD PLATE.
[7] abbreviates: Test System: AMES SALMONELLA TYPHIMURIUM, Strain/Indicator: TA1535, Metabolic Activation: NONE, Method: STANDARD PLATE.

Activity calls are given as the source filed them. How the calls were made is not given here.

For the compound `Cc1cc([N+](=O)[O-])ccc1N`, the mutagenic call is “active; positive (ploidy changes)” (End Point: IN VITRO CHROMOSOMAL ABERRATIONS, Test System: CHL CELLS, Metabolic Activation: NONE); “inactive; negative; authors report equivocal results for ploidy changes at 0.25 mg/ml and” (End Point: IN VITRO CHROMOSOMAL ABERRATIONS, Test System: CHL CELLS, Metabolic Activation: RAT, LIVER, S-9, SODIUM PHENOBARBITAL AND 5,6-BENZOFLAVONE); “active; positive (numerical aberrations)” (End Point: IN VITRO CHROMOSOMAL ABERRATIONS, Test System: CHL/IU CELLS, Metabolic Activation: NONE); “inactive; negative” (End Point: IN VITRO MICRONUCLEUS, Test System: CHL/IU CELLS, Metabolic Activation: NONE); “inactive; negative” (Test System: AMES SALMONELLA TYPHIMURIUM, Strain/Indicator: TA98, Metabolic Activation: RAT, LIVER, S-9, PCB, Method: PREINCUBATION); “inactive; negative” under setting [1]. In addition, the mutagenic call was “inactive; negative” (Test System: AMES SALMONELLA TYPHIMURIUM, Strain/Indicator: TA100, Metabolic Activation: RAT, LIVER, S-9, KANECHLOR 500, Method: PREINCUBATION) and “inactive; negative” under setting [2].
For `COP(=S)(OC)Oc1ccc(N)c(C)c1`, the mutagenic call is “inactive; negative” under setting [3], “inactive; negative” under setting [4], “inactive; negative” under setting [5] and “active; positive” under setting [6].
Turning to `Fc1ccc2ncccc2c1`, the mutagenic call was “active; positive, toxicity at 0.1 mg/ml. (information derived from a figure)” (End Point: In vitro chromosomal aberrations, Test System: Chinese hamster lung fibroblast cells (CHL/IU), Metabolic Activation: Rat, liver, S-9); “active; positive, cytotoxic at 0.2 mg/ml (information derived from a figure)” (End Point: In vitro micronucleus, Test System: Chinese hamster lung fibroblast cells (CHL/IU), Metabolic Activation: Rat, liver, S-9); “active; positive” (Test System: AMES SALMONELLA TYPHIMURIUM, Strain/Indicator: TA100, Metabolic Activation: RAT LIVER S-9, PHENOBARBITAL AND 5,6-BENZOFLAVONE, Method: PREINCUBATION); “active; positive” (Test System: AMES SALMONELLA TYPHIMURIUM, Strain/Indicator: TA100, Metabolic Activation: RAT, LIVER, S-9, AROCLOR 1254, Method: PREINCUBATION); “active; positive” (Test System: AMES SALMONELLA TYPHIMURIUM, Strain/Indicator: TA100, Metabolic Activation: RAT, LIVER, S-9, PHENOBARBITAL AND 5,6-BENZOFLAVONE, Method: PREINCUBATION); “active; positive” (Test System: AMES SALMONELLA TYPHIMURIUM, Strain/Indicator: TA100, Metabolic Activation: RAT, LIVER, S-9, PHENOBARBITAL AND 5,6-NAPHTHOFLAVONE, Method: PREINCUBATION). The mutagenic call under setting [2] is “active; positive”.
For `CCc1cc2ccccc2c2ccc3c(c12)[C@@H]1O[C@@H]1[C@H](O)[C@H]3O`, the mutagenic call under setting [1] is “active; positive”.
On to `c1ccc(Cc2ccc(CC3CO3)cc2)cc1` (stereo not given), for which the mutagenic call is, setting by setting: under setting [1], “inactive; negative”; under setting [5], “active; positive”; (Test System: AMES SALMONELLA TYPHIMURIUM, Strain/Indicator: TA1535, Metabolic Activation: NONE, Method: PREINCUBATION) “inactive; negative”; under setting [7], “active; positive”.
Take `Cc1ccc(NO)cc1C`: the mutagenic call is “active; positive” under setting [1] and “active; positive” (Test System: AMES SALMONELLA TYPHIMURIUM, Strain/Indicator: TA100, Metabolic Activation: RAT, LIVER, S-9, PCB, Method: PREINCUBATION).
Turning to `CCCCOS(=O)(=O)c1ccccc1`, the mutagenic call is, setting by setting: (End Point: IN VITRO MICRONUCLEUS, Test System: MOUSE LYMPHOMA L5178Y CELLS, Metabolic Activation: NONE) “inactive; negative”; (End Point: IN VITRO MICRONUCLEUS, Test System: MOUSE LYMPHOMA L5178Y CELLS, Metabolic Activation: RAT, LIVER, S-9) “inactive; negative”; (End Point: In vitro micronucleus, Test System: Chinese Hamster Ovary (CHO-WBL) cells, Metabolic Activation: None) “active; positive (p<0.01)”; under setting [5], “active; positive”; (Test System: AMES SALMONELLA TYPHIMURIUM, Strain/Indicator: TA100, Metabolic Activation: RAT, LIVER, S-9, Method: STANDARD PLATE) “active; positive”.
On to `CC(O)/C(=C(\c1ccccc1)c1ccc(OCCN(C)C)cc1)c1ccccc1` (stereo not given), for which the mutagenic call reads like this: (Test System: CHINESE HAMSTER V-79, Strain/Indicator: V79HHST (HPRT)/6-THIOGUANINE, Metabolic Activation: NONE) “inactive; negative”; (Test System: CHINESE HAMSTER V-79, Strain/Indicator: V79RHST (HPRT)/6-THIOGUANINE, Metabolic Activation: NONE) “active; positive”.
As to `Cn1cnc2c1c(=O)[nH]c(=O)n2C`, the mutagenic call (Test System: AMES SALMONELLA TYPHIMURIUM, Strain/Indicator: TA97A, Metabolic Activation: NONE, Method: STANDARD PLATE) was “inactive; negative”; the mutagenic call (Test System: AMES SALMONELLA TYPHIMURIUM, Strain/Indicator: TA97A, Metabolic Activation: RAT LIVER S-9, Method: STANDARD PLATE) is “inactive; negative”; the mutagenic call under setting [3] is “inactive; negative”; the mutagenic call under setting [4] was “inactive; negative”; the mutagenic call under setting [5] is “inactive; negative”; the mutagenic call (Test System: AMES SALMONELLA TYPHIMURIUM, Strain/Indicator: TA100, Metabolic Activation: RAT LIVER S-9, Method: STANDARD PLATE) was “inactive; negative”. For the same compound, the mutagenic call runs as follows: under setting [6], “inactive; negative”; (Test System: AMES SALMONELLA TYPHIMURIUM, Strain/Indicator: TA102, Metabolic Activation: NONE, Method: STANDARD PLATE) “inactive; negative”; (Test System: AMES SALMONELLA TYPHIMURIUM, Strain/Indicator: TA102, Metabolic Activation: RAT LIVER S-9, Method: STANDARD PLATE) “inactive; negative”; (Test System: AMES SALMONELLA TYPHIMURIUM, Strain/Indicator: TA104, Metabolic Activation: NONE, Method: STANDARD PLATE) “inactive; negative”; (Test System: AMES SALMONELLA TYPHIMURIUM, Strain/Indicator: TA104, Metabolic Activation: RAT LIVER S-9, Method: STANDARD PLATE) “inactive; negative”; under setting [7], “inactive; negative”. Besides, the mutagenic call reads like this: (Test System: AMES SALMONELLA TYPHIMURIUM, Strain/Indicator: TA1535, Metabolic Activation: RAT, LIVER, S-9, AROCLOR 1254, Method: STANDARD PLATE) “inactive; negative”; (Test System: AMES SALMONELLA TYPHIMURIUM, Strain/Indicator: TA1537, Metabolic Activation: NONE, Method: STANDARD PLATE) “inactive; negative”; (Test System: AMES SALMONELLA TYPHIMURIUM, Strain/Indicator: TA1537, Metabolic Activation: RAT, LIVER, S-9, AROCLOR 1254, Method: STANDARD PLATE) “inactive; negative”; (Test System: AMES SALMONELLA TYPHIMURIUM, Strain/Indicator: TA1538, Metabolic Activation: NONE, Method: STANDARD PLATE) “inactive; negative”; (Test System: AMES SALMONELLA TYPHIMURIUM, Strain/Indicator: TA1538, Metabolic Activation: RAT, LIVER, S-9, AROCLOR 1254, Method: STANDARD PLATE) “inactive; negative”; (Test System: MOUSE LYMPHOMA, Strain/Indicator: L5178Y (TK+/TK-), Metabolic Activation: NONE, Method: SUSPENSION/PLATE) “active; positive”. The mutagenic call (Test System: MOUSE LYMPHOMA, Strain/Indicator: L5178Y (TK+/TK-), Metabolic Activation: RAT, LIVER, S-9, AROCLOR 1254, Method: STANDARD PLATE) is “active; positive”.
For `Clc1cc2c3ccccc3ccc2c2ccccc12`, the mutagenic call is “inactive; negative” under setting [4] and “active; positive” under setting [6].
Consider `CC(/C=C(/C#N)c1ccc(Cl)c(Cl)c1)C(c1ccccc1)C(C#N)c1ccc(Cl)c(Cl)c1` (stereo not given), for which the mutagenic call under setting [5] was “active; positive”.
